The values that follow are results of earlier work, collected in US6441047B2, “Combination therapy for treating glaucoma” (Alcon Manufacturing Ltd.., priority 1995, dated 2002).

For data set [1] the following is noted: Drugs of the Future, 1994, 19, 905-909.
For data set [2] the following is noted: Drugs of the Future, 1994, 19, 905-909. The source holds these as a separate data set.
The conditions of data set [3]: Drugs of the Future, 1994, 19, 905-909. The source holds these as a separate data set.

`OC(CN1CCC(Cc2ccc(F)cc2)CC1)c1ccc(Cl)cc1` (stereo not drawn) [eliprodil]: in data set [1], the oral bioavailability entry is “orally bioavailable”. The “incidence of adverse effects upon administration” value in data set [2] is given as “low incidence of adverse effects”. For the same compound, the blood-brain barrier penetration entry in data set [3] was “effectively crosses the blood-brain barrier”.
